Laboratory results published in patent US20120135923A1, “Use of Melanocortins to Treat Dyslipidemia” (IPSEN PHARMA, S.A.S., priority 2009, published 2012).
Where two headings read alike, the source gives them in different places. Values belong to the compound of their own block, whether it stands above or below them. Bridge positions count the residues as written; N and C are the ends. Square brackets hold non-standard residues; d marks the D form. Peptide text beside a SMILES is read from it. Bip = N[C@@H](Cc1ccc(-c2ccccc2)cc1)C(=O)O; d2Nal = N[C@H](Cc1ccc2ccccc2c1)C(=O)O; Bta = N[C@@H](Cc1csc2ccccc12)C(=O)O; GABA = NCCCC(=O)O; βAla = NCCC(=O)O

Columns and labels:
hMC4-R [1] = target: T1, hMC4-R (Homo sapiens, UniProt P32245); experiment: Radioligand binding assay, [125I]-NDP-α-MSH competition, CHO-K1 membranes
T1 construct: expressed in transfected cells; host or cells: CHO-K1
T1 sequence (P32245 whole entry): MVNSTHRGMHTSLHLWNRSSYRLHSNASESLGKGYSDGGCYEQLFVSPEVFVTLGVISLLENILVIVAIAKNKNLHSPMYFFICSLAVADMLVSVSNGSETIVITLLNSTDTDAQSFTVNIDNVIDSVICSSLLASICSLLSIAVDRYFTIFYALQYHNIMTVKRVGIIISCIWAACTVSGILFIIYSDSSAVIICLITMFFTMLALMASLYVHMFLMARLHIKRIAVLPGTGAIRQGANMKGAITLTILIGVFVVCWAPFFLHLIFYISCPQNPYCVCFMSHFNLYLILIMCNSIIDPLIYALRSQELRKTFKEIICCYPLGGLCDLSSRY

hMC1-R [2] = target: T2, hMC1-R (Homo sapiens, UniProt Q01726); experiment: as above
T2 construct: expressed in transfected cells; host or cells: CHO-K1
T2 sequence (Q01726 whole entry): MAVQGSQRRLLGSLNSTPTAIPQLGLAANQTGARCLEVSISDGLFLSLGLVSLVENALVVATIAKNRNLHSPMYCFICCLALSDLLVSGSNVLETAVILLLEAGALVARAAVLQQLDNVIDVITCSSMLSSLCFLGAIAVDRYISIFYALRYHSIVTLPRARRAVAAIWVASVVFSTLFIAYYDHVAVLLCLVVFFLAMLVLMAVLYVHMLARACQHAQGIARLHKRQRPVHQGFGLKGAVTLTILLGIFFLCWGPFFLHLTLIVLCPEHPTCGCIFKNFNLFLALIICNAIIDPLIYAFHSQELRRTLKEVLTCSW

hMC3-R [3] = target: T3, hMC3-R (Homo sapiens, UniProt P41968); experiment: as above
T3 construct: expressed in transfected cells; host or cells: CHO-K1
T3 sequence (P41968 whole entry): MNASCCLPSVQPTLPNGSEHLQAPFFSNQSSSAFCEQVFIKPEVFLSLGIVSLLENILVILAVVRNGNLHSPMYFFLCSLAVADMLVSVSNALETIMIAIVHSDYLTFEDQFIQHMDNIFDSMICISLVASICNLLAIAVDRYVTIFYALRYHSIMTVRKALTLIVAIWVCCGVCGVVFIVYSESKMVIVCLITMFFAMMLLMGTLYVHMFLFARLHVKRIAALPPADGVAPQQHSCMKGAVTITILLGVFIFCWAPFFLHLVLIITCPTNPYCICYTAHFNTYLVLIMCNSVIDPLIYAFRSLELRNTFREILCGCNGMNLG

hMC5-R [4] = target: T4, hMC5-R (Homo sapiens, UniProt P33032); experiment: as above
T4 construct: expressed in transfected cells; host or cells: CHO-K1
T4 sequence (P33032 whole entry): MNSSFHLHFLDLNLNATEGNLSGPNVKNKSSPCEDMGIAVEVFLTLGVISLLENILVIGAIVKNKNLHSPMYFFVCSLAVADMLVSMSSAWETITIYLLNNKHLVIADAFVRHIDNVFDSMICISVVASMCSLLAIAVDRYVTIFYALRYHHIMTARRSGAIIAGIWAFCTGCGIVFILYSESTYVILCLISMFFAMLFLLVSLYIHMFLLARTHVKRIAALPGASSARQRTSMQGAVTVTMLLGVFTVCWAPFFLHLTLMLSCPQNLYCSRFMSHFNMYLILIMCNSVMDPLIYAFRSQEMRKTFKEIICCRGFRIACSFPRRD

hMC4-R [5] = target: T1, hMC4-R; experiment: cyclic AMP bioassay (ECL) in CHO-K1 cells; assay type: cell-based
Description: (§1) Intracellular cyclic AMP (cAMP) levels were determined by an electrochemiluminescence (ECL) assay (Meso Scale Discovery®, Gaithersburg, Md.; referred to hereinafter as MSD). […] Transgenic CHO-K1 cells stably expressing hMC receptor subtypes 1, 3, 4 or 5 were dispensed at a density of approximately 7,000 cells/well in 384-well Multi-Array®plates (MSD) containing integrated carbon electrodes and coated with anti-cAMP antibody. Increasing concentrations of the test compounds were added and the cells were incubated for approximately 40 minutes at approximately 37° C. […] At the end of the second incubation period read buffer (Tris-buffered solution containing an ECL co-reactant and Triton X-100 at ph 7.8) was added and the cAMP levels in the cell lysates were immediately determined by ECL detection with a Sector Imager 6000 Reader® (MSD). Data were analyzed using a computer-assisted non-linear regression analysis (XL fit; IDBS) and reported as either an EC50 value or a Kb value.
(§2) The Kb value reflects the potency of an antagonist and is determined by Schild analysis. In brief, concentration-response curves of an agonist are carried out in the presence of increasing concentrations of an antagonist. […] It is calculated by extrapolating the line on a Schild plot to zero on the y-axis.

hMC1-R [6] = target: T2, hMC1-R; experiment: cyclic AMP bioassay (ECL) in CHO-K1 cells; assay type: cell-based; settings: read-out: EC50 hMC1-R
hMC5-R [7] = target: T4, hMC5-R; experiment: cyclic AMP bioassay (ECL) in CHO-K1 cells; assay type: cell-based; settings: read-out: EC50 hMC5-R
Description: as §1, §2

hMC3-R [8] = target: T3, hMC3-R; experiment: cyclic AMP bioassay (ECL) in CHO-K1 cells; assay type: cell-based

Compound: CC(=O)N[C@@H](Cc1ccccc1)C(=O)N[C@H]1CSSC[C@@H](C(N)=O)NC(=O)CCCNC(=O)[C@H](Cc2c[nH]c3ccccc23)NC(=O)[C@H](CCCNC(=N)N)NC(=O)[C@@H](Cc2ccccc2)NC(=O)[C@H](Cc2c[nH]cn2)NC1=O [Ac-Phe-c(Cys-His-D-Phe-Arg-Trp-Gaba-Cys)-NH2] (Ac-FCH[dF]RW[GABA]C-NH2; disulfide 2-8)
Ki (hMC4-R [1]; Ki KMC4-R): 2.13 nM | Ki (hMC1-R [2]; Ki hMC1-R): 0.254 nM | Ki (hMC3-R [3]; Ki hMC3-R): 18.5 nM | Ki (hMC5-R [4]; Ki hMC5-R): 0.714 nM

Compound: CC(=O)N[C@H]1CSSC[C@@H](C(=O)N2CCC[C@H]2C(=O)N2CCC[C@H]2C(=O)N[C@@H](CCCCN)C(=O)N[C@@H](CC(=O)O)C(N)=O)NC(=O)[C@H](C)NC(=O)[C@H](Cc2csc3ccccc23)NC(=O)[C@H](CCCNC(=N)N)NC(=O)[C@@H](Cc2ccc3ccccc3c2)NC(=O)[C@H](Cc2c[nH]cn2)NC(=O)[C@H](CCC(=O)O)NC1=O [Ac-c(Cys-Glu-His-D-2-Nal-Arg-Bal-Ala-Cys)-Pro-Pro-Lys-Asp-NH2] (Ac-CEH[d2Nal]R[Bta]ACPPKD-NH2; disulfide 1-8)
Ki (hMC4-R [1]; Table 6, read-out: Ki hMC4-R): 0.586 nM | Ki (hMC1-R [2]; Table 6, read-out: Ki hMC1-R): 163 nM | Ki (hMC3-R [3]; Table 6, read-out: Ki hMC3-R): 23 nM | Ki (hMC5-R [4]; Table 6, read-out: Ki hMC5-R): 844 nM

Kb (hMC4-R [5]; Table 9C/9D, antagonist potency by Schild analysis, read-out: Kb MC4-R): 0.824 nM | EC50 (hMC1-R [6]; Table 9C/9D): 0.413 nM | EC50 (hMC5-R [7]; Table 9C/9D): 0.307 nM | Kb (hMC3-R [8]; Table 9C/9D, antagonist potency by Schild analysis, read-out: Kb hMC3-R): 9.32 nM | Ki (hMC4-R [1]; Table 5, read-out: Ki KMC4-R): 0.931 nM | Ki (hMC1-R [2]; Table 5, read-out: Ki hMC1-R): 0.461 nM | Ki (hMC3-R [3]; Table 5, read-out: Ki hMC3-R): 2.45 nM
Compound: CC(=O)N[C@@H](CCc1ccccc1)C(=O)N[C@H]1CC(=O)NCCCC[C@@H](C(N)=O)NC(=O)CCCNC(=O)[C@H](Cc2c[nH]c3ccccc23)NC(=O)[C@H](CCCNC(=N)N)NC(=O)[C@@H](Cc2ccc3ccccc3c2)NC(=O)[C@H](Cc2c[nH]cn2)NC1=O [Ac-hPhe-c(Asp-His-D-2-Nal-Arg-Trp-Gaba-Lys)-NH2]

EC50 (hMC4-R [5]; Table 9A/9B, read-out: EC50 hMC4-R): 0.11 nM | EC50 (hMC1-R [6]; Table 9A/9B): 0.35 nM | EC50 (hMC5-R [7]; Table 9A/9B): 0.37 nM | EC50 (hMC3-R [8]; Table 9A/9B, read-out: EC50 hMC3-R): 1.1 nM | Ki (hMC1-R [2]; Table 5, read-out: Ki hMC1-R): 0.05 nM | Ki (hMC3-R [3]; Table 5, read-out: Ki hMC3-R): 9.3 nM | Ki (hMC5-R [4]; Table 5, read-out: Ki hMC5-R): 2.9 nM
Compound: CCOc1ccc(C[C@H]2NC(=O)[C@H](Cc3c[nH]cn3)NC(=O)[C@@H](NC(=O)[C@H](N)Cc3ccccc3)CSSC[C@H](C(=O)N[C@H](C(N)=O)[C@@H](C)O)NC(=O)CCNC(=O)[C@H](Cc3c[nH]c4ccccc34)NC(=O)[C@H](CCCNC(=N)N)NC2=O)cc1 [D-Phe-c(Cys-His-D-(Et)Tyr-Arg-Trp-β-Ala-D-Cys)-Thr-NH2] (H-[dF]CH[dY](Et)RW[βAla][dC]T-NH2; disulfide 2-8)

Ki (hMC4-R [1]; Table 5, read-out: Ki KMC4-R): 583 nM | Ki (hMC1-R [2]; Table 5, read-out: Ki hMC1-R): 5.8 nM | Ki (hMC3-R [3]; Table 5, read-out: Ki hMC3-R): 3370 nM | Ki (hMC5-R [4]; Table 5, read-out: Ki hMC5-R): 1130 nM
Compound: C[C@@H](O)[C@H](NC(=O)[C@H]1CSSC[C@H](NC(=O)[C@H](N)Cc2ccccc2)C(=O)N[C@@H](Cc2c[nH]cn2)C(=O)N[C@H](Cc2ccccc2)C(=O)N[C@@H](CCCNC(=N)N)C(=O)N[C@@H](Cc2ccc(-c3ccccc3)cc2)C(=O)NCCC(=O)N1)C(N)=O [D-Phe-c(Cys-His-D-Phe-Arg-Bip-β-Ala-D-Cys)-Thr-NH2] (H-[dF]CH[dF]R[Bip][βAla][dC]T-NH2; disulfide 2-8)

Ki (hMC4-R [1]; Table 5, read-out: Ki KMC4-R): 4.75 nM | Ki (hMC1-R [2]; Table 5, read-out: Ki hMC1-R): 0.42 nM | Ki (hMC3-R [3]; Table 5, read-out: Ki hMC3-R): 106 nM | Ki (hMC5-R [4]; Table 5, read-out: Ki hMC5-R): 1260 nM
Compound: C[C@@H](O)[C@H](NC(=O)[C@H]1CSSC[C@H](NC(=O)[C@H](N)Cc2ccccc2)C(=O)N[C@@H](Cc2c[nH]cn2)C(=O)N[C@H](Cc2ccccc2)C(=O)N[C@@H](CCCNC(=N)N)C(=O)N[C@@H](Cc2c[nH]c3ccccc23)C(=O)NCCCC(=O)N1)C(N)=O [D-Phe-c(Cys-His-D-Phe-Arg-Trp-Gaba-D-Cys)-Thr-NH2] (H-[dF]CH[dF]RW[GABA][dC]T-NH2; disulfide 2-8)

EC50 (hMC4-R [5]; Table 11, read-out: EC50 hMC4): 2.12 nM | EC50 (hMC3-R [8]; Table 11, read-out: EC50 hMC3): 49.3 nM | Ki (hMC4-R [1]; Table 7, read-out: Ki hMC4): 19.9 nM | Ki (hMC1-R [2]; Table 7, read-out: Ki hMC1): 66.6 nM
Compound: C[C@@H]1C(=O)N[C@@H](Cc2cnc[nH]2)C(=O)N[C@H](Cc2ccccc2)C(=O)N[C@@H](CCCNC(=N)N)C(=O)N[C@@H](Cc2c[nH]c3ccccc23)C(=O)N[C@H](C(N)=O)CNC(=O)C[C@@H]2NC(=O)N1C2=O [c[Hydantoin(C(O)-(Asp-D-Ala))-His-D-Phe-Arg-Trp-Dap]-NH2]

Compound: CC[C@H](C)[C@@H]1NC(=O)N([C@H]2CSSC[C@@H](C(N)=O)NC(=O)[C@H](Cc3c[nH]c4ccccc34)NC(=O)[C@H](CCCNC(=N)N)NC(=O)[C@@H](Cc3ccccc3)NC(=O)[C@H](Cc3cnc[nH]3)NC(=O)[C@@H](C)NC2=O)C1=O [c[Hydantoin(C(O)-(Ile-Cys))-D-Ala-His-D-Phe-Arg-Trp-Cys]-NH2]
EC50 (hMC4-R [5]): 1.85 nM | EC50 (hMC3-R [8]): 8.51 nM | Ki (hMC4-R [1]; Ki hMC4, Table 7): 41.6 nM | Ki (hMC1-R [2]; Ki hMC1, Table 7): 53.4 nM
